Measured values from US12616672B2, “Methods for assessing risk of cardiovascular disease and methods and compounds for use in treating or preventing cardiovascular disease” (Queen Mary University of London, priority 2017, dated 2026).
Where “and” joins values, the source holds several entries; their conditions need not be identical. Equal values may be shown once.

Tests used:
[1] = tested on: peripheral blood leukocytes and platelets from CVD patients; experiment: CVD patient whole blood incubated with RvD2n-3 DPA or RvD5n-3 DPA then PAF, flow cytometry; format: cell-based, human; conditions: 15 min then PAF 30 min
Method: (§1) Whole blood was incubated with RvD2n-3 DPA or RvD5n-3 DPA (0.1 nM, 1 nM or 10 nM) or vehicle (PBS containing 0.01% EtOH) for 15 min then with PAF (100 ng/ml) for 30 min (37° C.). Expression of CD62P on (A) neutrophils (B) monocytes and CD11b on (C) neutrophils and (D) monocytes was investigated using flow cytometry and fluorescently labelled antibodies. Results are mean±s.em. and expressed as percentage of PAF incubated cells. n=9 patients per interval. * p<0.05 vs Veh group using one-sample t test, followed by Sidak correction of p values.
as §1, with “labeled” for “labelled”, “group.” for “interval.”, “PAF” for “Veh”, “Wilcoxon Signed Rank Test.” for “one-sample t test, followed by Sidak correction of p values.”
After stimulation, samples were washed twice with PBS for 12 min at 800×g. Samples were stained for flow cytometry as described below.
Whole blood was incubated with lineage-specific markers for 45 min (4° C., in DPBS containing 0.02% BSA). The following anti-human antibodies were used: VioBlue-anti-CD41, PE-Cy5-anti-CD62P, Brilliant Violet 711-anti-CD11b, APC-Cy7-anti-CD16, Alexa Fluor 647-anti-CD14. After staining, red blood cells were lysed using Whole Blood Lysing Reagent Kit, according to the manufacturer's instructions. Data was collected using a flow cytometer and analysis was conducted using appropriate software.

Apo E^−/− mice = experiment: Apo E−/− mice given RvD5n-3 DPA: lipid mediator profiling of descending aorta; format: in vivo, mouse
Method: Plasma was obtained from peripheral blood of healthy volunteers and patients following centrifugation at 1500×g for 10 min at room temperature. Descending aortas were weighed, placed in ice-cold methanol and homogenized using a glass dounce.
All samples for LC-MS-MS-based profiling were extracted using solid-phase extraction columns as described in Dalli et al. 2013 and Rathod et al. 2017, the contents of which are incorporated herein by reference.
Prior to sample extraction, deuterated internal standards, representing each region in the chromatographic analysis (500 pg each) were added to facilitate quantification in 4V of cold methanol.
Samples were kept at −20° C. for a minimum of 45 min to allow protein precipitation.
Supernatants were subjected to solid phase extraction, methyl formate fraction collected, brought to dryness and suspended in phase (methanol/water, 1:1, vol/vol) for injection on a Shimadzu LC-20AD HPLC and a Shimadzu SIL-20AC autoinjector, paired with a triple quadrupole mass spectrometer with or without a linear ion trap.
An Agilent Poroshell 120 EC-C18 column (100 mm×4.6 mm×2.7 μm) was kept at 50° C. and mediators eluted using a mobile phase consisting of methanol-water-acetic acid of 20:80:0.01 (vol/vol/vol) that was ramped to 50:50:0.01 (vol/vol/vol) over 0.5 min and then to 80:20:0.01 (vol/vol/vol) from 2 min to 11 min, maintained till 14.5 min and then rapidly ramped to 98:2:0.01 (vol/vol/vol) for the next 0.1 min. This was subsequently maintained at 98:2:0.01 (vol/vol/vol) for 5.4 min, and the flow rate was maintained at 0.5 ml/min. Mass spectrometer was operated using a multiple reaction monitoring method as in Walker M E et al. 13-Series resolvins mediate the leukocyte-platelet actions of atorvastatin and pravastatin in inflammatory arthritis. FASEB J. 2017 August; 31(8):3636-3648, the contents of which are incorporated herein by reference.
Each LM was identified using established criteria including matching retention time to synthetic and authentic materials and at least six diagnostic ions (Walker M E et al. 2017. ibid.)
Calibration curves were obtained for each using synthetic compound mixtures at 0.78, 1.56, 3.12, 6.25, 12.5, 25, 50, 100, and 200 pg that gave linear calibration curves with an r^2 values of 0.98-0.99.
Mice (male and female) were fed a western diet for 6 weeks from 4 weeks of age and kept of a 12 h light dark cycle. At 8 weeks of age, mice were given RvD5n-3 DPA (100 ng/mouse; i.v.) or vehicle on alternate days for a 2-week period. Mice were culled, aortic arches were collected and stained using oil-red O as in Khambata R S et al. Anti-inflammatory actions of inorganic nitrate stabilize the atherosclerotic plaque. Proc Natt Acad Sci USA. 2017; 114(4):E550-E559, the contents of which are incorporated herein by reference. Staining intensity was determined using image processing software and expressed as relative units per mm^2. The descending aorta was collected, placed in ice-cold methanol and lipid mediators identified and quantified as described above.

[2] = tested on: peripheral blood leukocytes and platelets from CVD patients; experiment: CVD patient whole blood incubated with RvD2n-3 DPA or RvD5n-3 DPA then PAF, flow cytometry; format: cell-based, human
[3] = 100 ng/mouse i.v., alternate days, 2 weeks, vs vehicle
[4] = Apo E−/− mice, western diet, RvD5n-3 DPA 100 ng/mouse i.v. alternate days 2 weeks, descending aorta, mean, n = 4
[5] = ApoE−/− mice, WD 6 weeks, 100 ng/mouse i.v. alternative days, descending aorta, mean ± s.e.m., n = 4
[6] = ApoE−/− mice, WD 6 weeks, 100 ng/mouse i.v. alternative days, descending aorta, n = 4

Question: What does the source list for `CC/C=C\C[C@H](O)/C=C/C=C\C/C=C\C=C\[C@@H](O)CCCCCC(=O)O` [RvD5n-3 DPA, 7,17-trihydroxy-8E,10,13,15E,19Z-docosapentaenoic acid]?
Answer: expression of CD11b on monocytes [1]: decreased; expression of CD11b on neutrophils [1]: decreased; platelet-monocyte aggregates measured as CD62P and CD41 expression [1]: decreases; platelet-neutrophil aggregates measured as CD62P and CD41 expression [1]: decreases; aortic 15-epi-LXA4 (Apo E^−/− mice; [3]): significant upregulation; aortic MaR1 (Apo E^−/− mice; [3]): significant upregulation; aortic prostanoids (Apo E^−/− mice; [3]): significant reductions; reduction of aortic TxB2 concentrations (Apo E^−/− mice; [3]): ~35% and > 35%; PGD2 concentration in aortic tissue (Apo E^−/− mice; [4]): 15.0 pg/10 mg tissue; PGE2 concentration in aortic tissue (Apo E^−/− mice; [4]): 16.2 pg/10 mg tissue; PGF2a concentration in aortic tissue (Apo E^−/− mice; [4]): 9.1 pg/10 mg tissue; TxB2 concentration in aortic tissue (Apo E^−/− mice; Apo E−/− mice, western diet, RvD5n-3 DPA 100 ng/mouse i.v. alternate days 2 weeks, descending aorta, mean, n = 4, p < 0.05 vs Vehicle): 30.7 pg/10 mg tissue; 4,14-diHDHA in aorta (Apo E^−/− mice; [5]): 4.9 ± 2.0 pg/10 mg aorta; 5S,12S-diHETE in aorta (Apo E^−/− mice; [5]): 0.6 ± 0.2 pg/10 mg aorta; 5S,15S-diHETE in aorta (Apo E^−/− mice; [5]): 51.9 ± 15.3 pg/10 mg aorta; 7S,14S-diHDHA in aorta (Apo E^−/− mice; [5]): 1.8 ± 0.3 pg/10 mg aorta; 10S,17S-diHDHA in aorta (Apo E^−/− mice; [5]): 66.0 ± 35.4 pg/10 mg aorta; 15-epi-LXA4 in aorta (Apo E^−/− mice; [5]): 9.6 ± 1.9 pg/10 mg aorta; 15-epi-LXB4 in aorta (Apo E^−/− mice; [5]): 1.4 ± 0.5 pg/10 mg aorta; 17R-PD1 in aorta (Apo E^−/− mice; [5]): 0.3 ± 0.2 pg/10 mg aorta; 17R-RvD1 in aorta (Apo E^−/− mice; [5]): 1.6 ± 0.9 pg/10 mg aorta; 17R-RvD3 in aorta (Apo E^−/− mice; [5]): 1.3 ± 0.3 pg/10 mg aorta; 22-OH-PD1 in aorta (Apo E^−/− mice; [5]): 6.0 ± 1.0 pg/10 mg aorta; LTB4 in aorta (Apo E^−/− mice; [5]): 1.7 ± 0.3 pg/10 mg aorta; LXA4 in aorta (Apo E^−/− mice; [5]): 0.3 ± 0.0 pg/10 mg aorta; LXB4 in aorta (Apo E^−/− mice; [5]): 0.6 ± 0.4 pg/10 mg aorta; MaR1 in aorta (Apo E^−/− mice; [5]): 35.4 ± 22.7 pg/10 mg aorta; PD1 in aorta (Apo E^−/− mice; [5]): 2.6 ± 0.7 pg/10 mg aorta; PD1n-3 DPA in aorta (Apo E^−/− mice; [5]): 0.0 ± 0.0 pg/10 mg aorta; PGD2 in aorta (Apo E^−/− mice; [5]): 14.9 ± 3.5 pg/10 mg aorta; PGE2 in aorta (Apo E^−/− mice; [5]): 20.5 ± 4.5 pg/10 mg aorta; PGF2α in aorta (Apo E^−/− mice; [5]): 10.0 ± 1.7 pg/10 mg aorta; RvD1 in aorta (Apo E^−/− mice; [5]): 1.7 ± 0.9 pg/10 mg aorta; RvD1n-3 DPA in aorta (Apo E^−/− mice; [5]): 0.1 ± 0.1 pg/10 mg aorta; RvD2 in aorta (Apo E^−/− mice; [5]): 0.4 ± 0.4 pg/10 mg aorta; RvD2n-3 DPA in aorta (Apo E^−/− mice; [5]): 0.1 ± 0.1 pg/10 mg aorta; RvD3 in aorta (Apo E^−/− mice; [5]): 2.4 ± 0.6 pg/10 mg aorta; RvD5 in aorta (Apo E^−/− mice; [5]): 0.4 ± 0.2 pg/10 mg aorta; RvD5n-3 DPA in aorta (Apo E^−/− mice; [5]): 0.1 ± 0.1 pg/10 mg aorta; RvD6 in aorta (Apo E^−/− mice; [5]): 1.5 ± 1.1 pg/10 mg aorta; RvE2 in aorta (Apo E^−/− mice; [5]): 0.1 ± 0.1 pg/10 mg aorta; RvE3 in aorta (Apo E^−/− mice; [5]): 0.7 ± 0.1 pg/10 mg aorta; RvEl in aorta (Apo E^−/− mice; [5]): 1.8 ± 0.5 pg/10 mg aorta; TxB2 in aorta (Apo E^−/− mice; [5]): 34.5 ± 4.1 pg/10 mg aorta; 20-OH-LTB4 in aorta (Apo E^−/− mice; [6]): — (Below limits of detection); MaR1n-3 DPA in aorta (Apo E^−/− mice; [6]): — (Below limits of detection); RvD4 in aorta (Apo E^−/− mice; [6]): — (Below limits of detection); RvT1 in aorta (Apo E^−/− mice; [6]): — (Below limits of detection); RvT2 in aorta (Apo E^−/− mice; [6]): — (Below limits of detection); RvT3 in aorta (Apo E^−/− mice; [6]): — (Below limits of detection); RvT4 in aorta (Apo E^−/− mice; [6]): — (Below limits of detection); expression of CD62P on peripheral blood platelets [2]: dose-dependently regulated; expression of CD63 on peripheral blood platelets [2]: dose-dependently regulated
